Measured values published in patent US9758492B2, “IDO inhibitors” (Bristol-Myers Squibb Company, priority 2013, dated 2017).

These molecules were tested against T1, Human IDO1 (Homo sapiens, UniProt P14902) (assay: IDO Kynurenine Assay with Human IDO1/HEK293 Cells). Details: read-out: HEK human IDO-1 (IC50).
T1 construct: expressed in transfected cells; host or cells: HEK293
Format: cell-based
Method: IDO Kynurenine Assay with Human IDO1/HEK293 Cells
Human IDO1/HEK293 cells were seeded at 10,000 cells per 50 uL per well with RPMI/phenol red free media contains 10% FBS in a 384-well black wall clear bottom tissue culture plate (Matrix Technologies LLC) 125 nL of certain concentration of compound was then added to each well using ECHO liquid handling systems. The cells were incubated for 20 hours in 37° C. incubator with 5% CO2.
The compound treatments were stopped by adding Trichloroacetic Acid (Sigma-Aldrich) to a final concentration at 0.2%. The cell plate was further incubated at 50° C. for 30 minute. The equal volume supernatant (20 uL) and 0.2% (w/v) Ehrlich reagent (4-dimethylaminobenzaldehyde, Sigma-Aldrich) in glacial acetic acid were mixed in a new clear bottom 384-well plate. This plate was then incubated at room temperature for 30 minute. The absorbance at 490 nm was measured on Envision plate reader.
Compound IC50 values were calculated using the counts of 500 nM of a reference standard treatment as one hundred percent inhibition, and counts of no compound but DMSO treatment as zero percent inhibition.

T1 sequence (P14902 whole entry): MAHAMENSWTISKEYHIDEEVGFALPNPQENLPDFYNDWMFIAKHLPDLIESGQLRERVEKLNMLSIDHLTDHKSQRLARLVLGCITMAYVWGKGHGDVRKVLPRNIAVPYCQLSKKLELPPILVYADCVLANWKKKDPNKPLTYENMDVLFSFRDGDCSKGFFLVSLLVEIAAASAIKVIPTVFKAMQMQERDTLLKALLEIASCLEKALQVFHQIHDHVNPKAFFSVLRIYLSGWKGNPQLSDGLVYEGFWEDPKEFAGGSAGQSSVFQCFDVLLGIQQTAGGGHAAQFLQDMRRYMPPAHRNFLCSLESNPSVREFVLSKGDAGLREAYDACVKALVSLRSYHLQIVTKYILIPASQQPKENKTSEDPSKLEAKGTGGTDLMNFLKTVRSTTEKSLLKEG

`Cc1ccc(NC(=O)Nc2cc(-c3cc(F)ccc3C(=O)O)ccc2N(CC(C)C)C2CCC(C(F)(F)F)CC2)cc1` (stereo not shown) [Example 306, 5-fluoro-4′-(isobutyl(4-(trifluoromethyl)cyclohexyl)amino)-3′-(3-(p-tolyl)ureido)-[1,1′-biphenyl]-2-carboxylic acid] and `Cc1ccc(NC(=O)Nc2cc(-c3ccccc3C(=O)O)ccc2N(CC(C)C)C2CCC(C(F)(F)F)CC2)cc1` (stereo not shown) [Example 307, 4′-(isobutyl(4-(trifluoromethyl)cyclohexyl)amino)-3′-(3-(p-tolyl)ureido)-[1,1′-biphenyl]-2-carboxylic acid] are the same in IC50: 40 nM for the first, 40 nM for the second.

`CCOc1ccc(NC(=O)Nc2cc(-c3cc(F)ccc3C(=O)O)c(F)cc2N(CC(C)C)C2C[C@H]3CC[C@@H]2C3)cc1` (stereo partly shown) [Example 412] and `Cc1ccc(NC(=O)Nc2cc(-c3cc(F)ccc3C(=O)O)c(F)cc2N(CC(C)C)C2C[C@H]3CC[C@@H]2C3)cc1` (stereo partly shown) [Example 410] are within 1.5-fold of each other in IC50: 60 nM for the first, 50 nM for the second.

`CCOc1ccc(NC(=O)Nc2cc(-c3cc(F)ccc3C(=O)O)c(F)cc2N(CC(C)C)C2CCC(F)(F)CC2)cc1` [Example 540] and `Cc1ccc(NC(=O)Nc2cc(-c3cc(F)ccc3C(=O)O)c(F)cc2N(CC(C)C)C2CCC(F)(F)CC2)cc1` [Example 519, 4′-((4,4-Difluorocyclohexyl)(isobutyl)amino)-2′,5-difluoro-5′-(3-(p-tolyl)ureido)-[1,1′-biphenyl]-2-carboxylic acid] are within 1.5-fold of each other in IC50: 10 nM for the first, 6.91 nM for the second.

Going from `CC(C)CN(c1ccc(-c2cc(F)ccc2C(=O)O)cc1NC(=O)Nc1cc(C(F)(F)F)no1)C1CCCCC1` [Example 400] to `CC(C)CN(c1cc(F)c(-c2cc(F)ccc2C(=O)O)cc1NC(=O)Nc1cc(C(F)(F)F)no1)C1CCCCC1` [Example 393], the IC50 falls from 5.35 nM to 2.07 nM (2.6-fold). The second is the more potent here.

First: COCCN(c1ccc(-c2ccccc2C(=O)O)cc1NC(=O)Nc1ccc(C)cc1)C1CCCCC1 [Example 445]
Second: COC(C)(C)CCN(c1ccc(-c2ccccc2C(=O)O)cc1NC(=O)Nc1ccc(C)cc1)C1CCCCC1 [Example 420]
The IC50 of the first is 100-fold lower: 50 nM for the first, 5250 nM for the second. The first is the more potent here.

Compared with `Cc1cc(NC(=O)Nc2cc(-c3ccccc3-c3nnn[nH]3)ccc2N(CC(C)C)CC(C)C)on1` [Example 396], `CC(C)CN(CC(C)C)c1ccc(-c2ccccc2-c2nnn[nH]2)cc1NC(=O)Nc1cc(C(F)(F)F)no1` [Example 398] is 1.6-fold higher in IC50: 6.07 nM for the first, 9.69 nM for the second. The first is the more potent here.

Going from `CC(C)CN(c1c(F)cc(-c2ccccc2-c2nnn[nH]2)cc1NC(=O)Nc1ccc(Cl)cc1F)C1CCCCC1` [Example 436] to `Cc1ccc(NC(=O)Nc2cc(-c3ccccc3-c3nnn[nH]3)cc(F)c2N(CC(C)C)C2CCCCC2)cc1` [Example 433], the IC50 rises from 1.16 nM to 1.97 nM (1.7-fold).

First: CC(C)CN(c1cc(F)c(-c2cc(F)ccc2C(=O)O)cc1NC(=O)Nc1ccc2nccn2c1)C1CCCCC1 [Example 404]
Second: CC(C)CN(c1cc(F)c(-c2cc(F)ccc2C(=O)O)cc1NC(=O)Nc1ccn(C)n1)C1CCCCC1 [Example 515, 4′-(Cyclohexyl(isobutyl)amino)-2′,5-difluoro-5′-(3-(1-methyl-1H-pyrazol-3-yl)ureido)-[1,1′-biphenyl]-2-carboxylic acid]
The IC50 of the first is 1.6-fold lower: 2560 nM for the first, 4220 nM for the second.

First: Cc1cnc(NC(=O)Nc2cc(-c3ccccc3-c3nnn[nH]3)ccc2N(CC(C)C)CC(C)C)cn1 [Example 308, 1-(4-(diisobutylamino)-2′-(2H-tetrazol-5-yl)-[1,1′-biphenyl]-3-yl)-3-(5-methylpyrazin-2-yl)urea]
Second: CCOc1ccc(NC(=O)Nc2cc(-c3ccccc3-c3nnn[nH]3)ccc2N(CC(C)C)CC(C)C)cc1 [Example 454]
The IC50 of the first is 110-fold higher: 270 nM for the first, 2.35 nM for the second. The second is the more potent here.

Going from `Cc1ccc(NC(=O)Nc2cc(-c3ccccc3-c3nnn[nH]3)ccc2N(C2CC2)C2CC2)cc1` [Example 542] to `C=C(C)CN(c1ccc(-c2ccccc2-c2nnn[nH]2)cc1NC(=O)Nc1ccc(C)cc1)C1CCCCC1` [Example 462], the IC50 falls from 760 nM to 1.11 nM (680-fold). The second is the more potent here.

First: Cc1c(Br)cc(NC(=O)Nc2cc(-c3cc(F)ccc3C(=O)O)ccc2N(CC(C)C)C2CCCCC2)cc1Br [Example 507, 4′-(Cyclohexyl(isobutyl)amino)-3′-(3-(3,5-dibromo-4-methylphenyl)ureido)-5-fluoro-[1,1′-biphenyl]-2-carboxylic acid]
Second: CC(C)CN(c1ccc(-c2cc(F)ccc2C(=O)O)cc1NC(=O)Nc1ccnnc1)C1CCCCC1 [Example 401]
The IC50 of the first is 2.4-fold higher: 2870 nM for the first, 1180 nM for the second.

`Cc1ccc(NC(=O)Nc2cc(-c3ccccc3C(=O)O)c(F)cc2N(CC(C)C)CC(C)C)cc1` [Example 425] and `Cc1ccc(NC(=O)Nc2cc(-c3ccccc3C(=O)O)c(F)cc2N(CC(C)C)C2CCC(F)(F)CC2)cc1` [Example 533, 4′-((4,4-Difluorocyclohexyl)(isobutyl)amino)-2′-fluoro-5′-(3-(p-tolyl)ureido)-[1,1′-biphenyl]-2-carboxylic acid] are within 1.5-fold of each other in IC50: 10 nM for the first, 8.02 nM for the second.

First: Cc1ccc(NC(=O)Nc2cc(-c3ccccc3-c3nnn[nH]3)c(F)cc2N(CC(C)C)C2CCC(F)(F)CC2)cc1 [Example 534, 1-(4-((4,4-Difluorocyclohexyl)(isobutyl)amino)-6-fluoro-2′-(1H-tetrazol-5-yl)-[1,1′-biphenyl]-3-yl)-3-(p-tolyl)urea]
Second: CC(C)CN(c1cc(F)c(-c2ccccc2-c2nnn[nH]2)cc1NC(=O)Nc1ccc2c(c1)OCO2)C1CCC(F)(F)CC1 [Example 532, 1-(Benzo[d][1,3]dioxol-5-yl)-3-(4-((4,4-difluorocyclohexyl)(isobutyl)amino)-6-fluoro-2′-(1H-tetrazol-5-yl)-[1,1′-biphenyl]-3-yl)urea]
The IC50 of the first is 1.6-fold lower: 3.05 nM for the first, 4.82 nM for the second.

Compared with `COCCN(c1ccc(-c2ccccc2-c2nnn[nH]2)cc1NC(=O)Nc1ccc(C)cc1)C1CCCCC1` [Example 446], `COCCN(c1ccc(-c2ccccc2-c2nnn[nH]2)cc1NC(=O)Nc1ccc(Cl)cc1F)C1CCCCC1` [Example 452] is 3.7-fold lower in IC50: 2.45 nM for the first, 0.661 nM for the second. The second is the more potent here.

Compared with `[2H]C([2H])(C(C)C)N(c1ccc(-c2cc(F)ccc2C(=O)O)cc1NC(=O)Nc1ccc(C)cc1)C([2H])([2H])C(C)C` [Example 477], `COc1ccc(-c2ccc(N(CC(C)C)CC(C)C)c(NC(=O)Nc3ccc(C)cc3)c2)c(C(=O)O)c1` [Example 497] is 30-fold higher in IC50: 7.65 nM for the first, 230 nM for the second. The first is the more potent here.

Compared with `Cc1ccc(NC(=O)Nc2cc(-c3ccccc3-c3nnn[nH]3)ccc2N(CCOC(C)C)CC(C)C)cc1` [Example 465], `CC(C)CN(CC(C)C)c1ccc(-c2ccccc2-c2nnn[nH]2)cc1NC(=O)Nc1ccc(N(C)C)cc1` [Example 463] is 10-fold lower in IC50: 200 nM for the first, 20 nM for the second. The second is the more potent here.

Compared with `CCOc1ccc(NC(=O)Nc2cc(-c3cc(F)ccc3C(=O)O)ccc2N(C2CC2)C2CC2)cc1` [Example 543], `Cc1ccc(NC(=O)Nc2cc(-c3cc(F)ccc3C(=O)O)ccc2N(CCCC(F)(F)F)C2CCCCC2)cc1` [Example 415] is 56-fold lower in IC50: 7240 nM for the first, 130 nM for the second. The second is the more potent here.

Going from `CC(C)CN(c1cc(F)c(-c2cc(F)ccc2C(=O)O)cc1NC(=O)Nc1ccc(N2CCOCC2)cc1)C1CCCCC1` [Example 524, 4′-(Cyclohexyl(isobutyl)amino)-2′,5-difluoro-5′-(3-(4-morpholinophenyl)ureido)-[1,1′-biphenyl]-2-carboxylic acid] to `Cc1ccc(NC(=O)Nc2cc(-c3cc(F)ccc3C(=O)O)cc(F)c2N(CC(C)C)C2CCCCC2)cc1` [Example 435], the IC50 falls from 2720 nM to 3 nM (910-fold). The second is the more potent here.

Going from `Cc1ccc(NC(=O)Nc2cc(-c3cccc(C)c3C(=O)O)ccc2N(CC(C)C)CC(C)C)cc1` [Example 536, 4′-(Diisobutylamino)-3-methyl-3′-(3-(p-tolyl)ureido)-[1,1′-biphenyl]-2-carboxylic acid] to `Cc1cccc(-c2ccc(N(CC(C)C)CC(C)C)c(NC(=O)Nc3ccc(OC(F)(F)F)cc3)c2)c1C(=O)O` [Example 309, 4′-(Diisobutylamino)-3-methyl-3′-(3-(4-(trifluoromethoxy)phenyl)ureido)-[1,1′-biphenyl]-2-carboxylic acid], the IC50 falls from 70 nM to 4 nM (18-fold).

Compared with `C=C(C)CN(c1ccc(-c2ccccc2C(=O)O)cc1NC(=O)Nc1ccc(C)cc1)C1CCCCC1` [Example 460], `C=C(C)CN(CCCC(F)(F)F)c1ccc(-c2ccccc2C(=O)O)cc1NC(=O)Nc1ccc(C)cc1` [Example 418] is 1.9-fold higher in IC50: 2.4 nM for the first, 4.63 nM for the second. The first is the more potent here.

`COCCN(c1ccc(-c2cc(F)ccc2C(=O)O)cc1NC(=O)Nc1ccc(Cl)cc1F)C1CCCCC1` [Example 451] and `CC(C)CN(c1c(F)cc(-c2ccccc2C(=O)O)cc1NC(=O)Nc1ccc(Cl)cc1F)C1CCCCC1` [Example 438] are within 1.5-fold of each other in IC50: 1.74 nM for the first, 1.67 nM for the second.

First: CC(C)CN(c1ccc(-c2cc(F)ccc2C(=O)O)cc1NC(=O)Nc1ccc2ncncc2c1)C1CCCCC1 [Example 405]
Second: CC(C)CN(c1c(F)cc(-c2ccccc2C(=O)O)cc1NC(=O)Nc1ccccc1F)C1CCCCC1 [Example 432]
The IC50 of the first is 680-fold higher: 1230 nM for the first, 1.82 nM for the second.

`CCOc1ccc(NC(=O)Nc2cc(-c3cc(C)ccc3C(=O)O)ccc2N(CC(C)C)CC(C)C)cc1` [Example 529, 4′-(Diisobutylamino)-3′-(3-(4-ethoxyphenyl)ureido)-5-methyl-[1,1′-biphenyl]-2-carboxylic acid] and `CC(C)CN(CC(C)C)c1ccc(-c2ccccc2-c2nnn[nH]2)cc1NC(=O)Nc1ccc(CC#N)cc1` [Example 457] are within 1.5-fold of each other in IC50: 390 nM for the first, 370 nM for the second.

First: CC(C)CN(CC(C)C)c1cc(F)c(-c2cc(F)ccc2C(=O)O)cc1NC(=O)Nc1ccc(Cl)cc1F [Example 428]
Second: CC(C)CN(c1cc(F)c(-c2cc(F)ccc2C(=O)O)cc1NC(=O)Nc1ccc(C#N)cc1)C1C[C@H]2CC[C@@H]1C2 (stereo partly shown) [Example 411]
The IC50 of the first is 27-fold lower: 1.84 nM for the first, 50 nM for the second. The first is the more potent here.

With `C=C(C)CN(CCCC(F)(F)F)c1ccc(-c2cc(F)ccc2C(=O)O)cc1NC(=O)Nc1ccc(C)cc1` [Example 419] the IC50 was 5.08 nM.
